# According to patent US9339463B2, “Micronized opioid compositions having a specific particle size distribution” (priority 2007, dated 2016):
# Where “and” joins values, the source holds several entries; their conditions need not be identical. Equal entries are not always repeated.
# What was measured:
# Format in all cases: physicochemical
# [1] = Particle size distribution by laser diffraction (Malvern Mastersizer 2000), oxycodone base
# [2] = Physical stability on storage: microscopy
# Description: (§1) As a secondary analytical method, the micronized and the non-micronized oxycodone analyzed by laser diffraction with results shown in Table 1, were analyzed by optical microscopy to evaluate particle size and the results are shown in Table 2. Sample aliquots (˜50 mg for micronized and ˜225 mg for non-micronized) were dispersed in 10 ml of sunflower oil and viewed on a Nikon microscope equipped with a 10× objective. Particle size (mean diameter) was determined using Image Pro® Plus software and expressed as a number % undersize. The particle size values determined by optical microscopy as shown in Table 2 are consistent with the laser diffraction particle size data shown in Table 1.
# (§2) Samples of Example 2 and additional samples comprising micronized and non-micronized oxycodone useful for exemplary dosage forms are tested for their chemical stability and physical stability. Based on a comparison of stability data from micronized and non-micronized samples stored at both 25° C./60% RH and 40 C.°/75% RH, no differences are observed in the impurity profile through three months of study as shown in Tables 4 and 5 for exemplary lots. The impurities analyzed include (HOXY), 14-Hydroxycodeinone; (DHOXYN), 7,8-Dihydro-8,14-Dihydroxycodeinone; (DHOXY), 7,8-Dihydro-14-hydroxycodeine; (OXYE), Oxycodone ethylenolate; (OXYN), 1-Hydroxyoxycodone and Oxycodone N-oxide. Most of the impurities are found to be below the limit of quantitation (LOQ), except for HOXY and DHOXYN which were unchanged at 0.1%. […] The solid state stability of the micronized oxycodone is monitored for particle size, XRPD, DSC, and microscopy as shown in Table 6.
# [3] = Particle size by optical microscopy, number % undersize; conditions: mean diameter
# Description: as §1
# [4] = Chemical stability on storage: assay and impurities
# Description: as §2
# [5] = Physical stability on storage: particle size (Dv90) by laser diffraction
# [6] = Physical stability on storage: DSC onset melt
# Description: The micronized lots may also be analyzed by Differential Scanning Calorimetry (DSC). DSC is performed on a TA instrument Q100 using a heating ramp from 25-235° C. at a rate of 5° C./min. […] The sharp endotherm observed is consistent with a crystalline material and the absence of other thermal events proves that there were no polymorph transformations during melting.
# as §2
# [7] = Table 1 analysis, lot 2 in duplicate
# [8] = additional laser diffraction analysis, Table 3
compound,measurement,setting,value
"COc1ccc2c3c1O[C@H]1C(=O)CC[C@@]4(O)[C@@H](C2)N(C)CC[C@]314 [Lot 1, oxycodone]",Particle size (Dv10),[1]; [7],0.5 μ
same,Particle size (Dv50),[1]; [7],1.4 μ
same,Particle size (Dv90),[1]; [7],3.0 μ
same,Particle size (Dv10),[1]; [8],0.7 μ
same,Particle size (Dv50),[1]; [8],2.1 μ
same,Particle size (Dv90),[1]; [8],5.1 μ
same,"Microscopy, ≦10 μ","[2]; 25° C./60% RH, 3 mo",98.4%
same,"Microscopy, ≦10 μ","[2]; 40° C./75% RH, 3 mo",98.2%
same,"Microscopy, ≦10 μ",[2]; Time 0,99.5%
same,% ≦ 1μ,[3],30.5%
same,% ≦ 5μ,[3],92.7%
same,% ≦ 10μ,[3],99.5%
same,1-HydroxyOXY,"[4]; 5° C./60% RH, 1 mo (Table 4)",<LOQ
same,1-HydroxyOXY,"[4]; 5° C./60% RH, 3 mo (Table 4)",<LOQ
same,Assay,"[4]; 25° C./60% RH, 1 mo",98.9%
same,"DHOXY (7,8-Dihydro-14-hydroxycodeine)","[4]; 25° C./60% RH, 1 mo",<LOQ
same,"DHOXYN (7,8-Dihydro-8,14-Dihydroxycodeinone)","[4]; 25° C./60% RH, 1 mo",0.10%
same,HOXY (14-Hydroxycodeinone),"[4]; 25° C./60% RH, 1 mo",0.08%
same,OXYE (Oxycodone ethylenolate),"[4]; 25° C./60% RH, 1 mo",<LOQ
same,OXYN,"[4]; 25° C./60% RH, 1 mo",<LOQ
same,Other (impurities; Table 5: >0.05%),"[4]; 25° C./60% RH, 1 mo",<LOQ
same,Total impurities,"[4]; 25° C./60% RH, 1 mo",0.18%
same,Assay,"[4]; 25° C./60% RH, 3 mo",99.9%
same,"DHOXY (7,8-Dihydro-14-hydroxycodeine)","[4]; 25° C./60% RH, 3 mo",<LOQ
same,"DHOXYN (7,8-Dihydro-8,14-Dihydroxycodeinone)","[4]; 25° C./60% RH, 3 mo",0.10%
same,HOXY (14-Hydroxycodeinone),"[4]; 25° C./60% RH, 3 mo",0.08%
same,OXYE (Oxycodone ethylenolate),"[4]; 25° C./60% RH, 3 mo",<LOQ
same,OXYN,"[4]; 25° C./60% RH, 3 mo",<LOQ
same,Other (impurities; Table 5: >0.05%),"[4]; 25° C./60% RH, 3 mo",<LOQ
same,Total impurities,"[4]; 25° C./60% RH, 3 mo",0.18%
same,1-HydroxyOXY,"[4]; 40° C./75% RH, 1 mo",<LOQ
same,Assay,"[4]; 40° C./75% RH, 1 mo",100.0%
same,"DHOXY (7,8-Dihydro-14-hydroxycodeine)","[4]; 40° C./75% RH, 1 mo",<LOQ
same,"DHOXYN (7,8-Dihydro-8,14-Dihydroxycodeinone)","[4]; 40° C./75% RH, 1 mo",0.10%
same,HOXY (14-Hydroxycodeinone),"[4]; 40° C./75% RH, 1 mo",0.08%
same,OXYE (Oxycodone ethylenolate),"[4]; 40° C./75% RH, 1 mo",<LOQ
same,OXYN,"[4]; 40° C./75% RH, 1 mo",<LOQ
same,Other (impurities; Table 5: >0.05%),"[4]; 40° C./75% RH, 1 mo",<LOQ
same,Total impurities,"[4]; 40° C./75% RH, 1 mo",0.18%
same,1-HydroxyOXY,"[4]; 40° C./75% RH, 3 mo",<LOQ
same,Assay,"[4]; 40° C./75% RH, 3 mo",99.5%
same,"DHOXY (7,8-Dihydro-14-hydroxycodeine)","[4]; 40° C./75% RH, 3 mo",<LOQ
same,"DHOXYN (7,8-Dihydro-8,14-Dihydroxycodeinone)","[4]; 40° C./75% RH, 3 mo",0.10%
same,HOXY (14-Hydroxycodeinone),"[4]; 40° C./75% RH, 3 mo",0.08%
same,OXYE (Oxycodone ethylenolate),"[4]; 40° C./75% RH, 3 mo",<LOQ
same,OXYN,"[4]; 40° C./75% RH, 3 mo",<LOQ
same,Other (impurities; Table 5: >0.05%),"[4]; 40° C./75% RH, 3 mo",<LOQ
same,Total impurities,"[4]; 40° C./75% RH, 3 mo",0.18%
same,1-HydroxyOXY,[4]; Time 0,<LOQ
same,Assay,[4]; Time 0,99.3%
same,"DHOXY (7,8-Dihydro-14-hydroxycodeine)",[4]; Time 0,<LOQ
same,"DHOXYN (7,8-Dihydro-8,14-Dihydroxycodeinone)",[4]; Time 0,0.10%
same,HOXY (14-Hydroxycodeinone),[4]; Time 0,0.08%
same,OXYE (Oxycodone ethylenolate),[4]; Time 0,<LOQ
same,OXYN,[4]; Time 0,<LOQ
same,Other (impurities; Table 5: >0.05%),[4]; Time 0,<LOQ
same,Total impurities,[4]; Time 0,0.18%
same,Particle size (Dv90),"[5]; 25° C./60% RH, 3 months",6 μ
same,Particle size (Dv90),"[5]; 40° C./75% RH, 3 months",11 μ
same,Particle size (Dv90),[5]; Time 0,4 μ
same,DSC Onset Melt,"[6]; 25° C./60% RH, 3 mo",221.8 °C
same,DSC Onset Melt,"[6]; 40° C./75% RH, 3 mo",221.9 °C
same,DSC Onset Melt,[6]; Time 0,222.0 °C
"COc1ccc2c3c1O[C@H]1C(=O)CC[C@@]4(O)[C@@H](C2)N(C)CC[C@]314 [Lot 2, oxycodone]",Particle size (Dv10),[1]; [7],"0.5, 0.5 μ"
same,Particle size (Dv50),[1]; [7],1.5 μ and 2.2 μ
same,Particle size (Dv90),[1]; [7],3.1 μ and 5.1 μ
same,Particle size (Dv10),[1]; [8],0.6 μ
same,Particle size (Dv50),[1]; [8],2.1 μ
same,Particle size (Dv90),[1]; [8],5.8 μ
same,"Microscopy, ≦10 μ","[2]; 25° C./60% RH, 3 mo",99.5%
same,"Microscopy, ≦10 μ","[2]; 40° C./75% RH, 3 mo",98.3%
same,"Microscopy, ≦10 μ",[2]; Time 0,99.5%
same,% ≦ 1μ,[3],25.3%
same,% ≦ 5μ,[3],92.2%
same,% ≦ 10μ,[3],99.5%
same,1-HydroxyOXY,"[4]; 5° C./60% RH, 1 mo (Table 4)",<LOQ
same,1-HydroxyOXY,"[4]; 5° C./60% RH, 3 mo (Table 4)",<LOQ
same,Assay,"[4]; 25° C./60% RH, 1 mo",99.8%
same,"DHOXY (7,8-Dihydro-14-hydroxycodeine)","[4]; 25° C./60% RH, 1 mo",<LOQ
same,"DHOXYN (7,8-Dihydro-8,14-Dihydroxycodeinone)","[4]; 25° C./60% RH, 1 mo",0.10%
same,HOXY (14-Hydroxycodeinone),"[4]; 25° C./60% RH, 1 mo",0.08%
same,OXYE (Oxycodone ethylenolate),"[4]; 25° C./60% RH, 1 mo",<LOQ
same,OXYN,"[4]; 25° C./60% RH, 1 mo",<LOQ
same,Other (impurities; Table 5: >0.05%),"[4]; 25° C./60% RH, 1 mo",<LOQ
same,Total impurities,"[4]; 25° C./60% RH, 1 mo",0.18%
same,Assay,"[4]; 25° C./60% RH, 3 mo",99.8%
same,"DHOXY (7,8-Dihydro-14-hydroxycodeine)","[4]; 25° C./60% RH, 3 mo",<LOQ
same,"DHOXYN (7,8-Dihydro-8,14-Dihydroxycodeinone)","[4]; 25° C./60% RH, 3 mo",0.10%
same,HOXY (14-Hydroxycodeinone),"[4]; 25° C./60% RH, 3 mo",0.08%
same,OXYE (Oxycodone ethylenolate),"[4]; 25° C./60% RH, 3 mo",<LOQ
same,OXYN,"[4]; 25° C./60% RH, 3 mo",<LOQ
same,Other (impurities; Table 5: >0.05%),"[4]; 25° C./60% RH, 3 mo",<LOQ
same,Total impurities,"[4]; 25° C./60% RH, 3 mo",0.18%
same,1-HydroxyOXY,"[4]; 40° C./75% RH, 1 mo",<LOQ
same,Assay,"[4]; 40° C./75% RH, 1 mo",99.6%
same,"DHOXY (7,8-Dihydro-14-hydroxycodeine)","[4]; 40° C./75% RH, 1 mo",<LOQ
same,"DHOXYN (7,8-Dihydro-8,14-Dihydroxycodeinone)","[4]; 40° C./75% RH, 1 mo",0.10%
same,HOXY (14-Hydroxycodeinone),"[4]; 40° C./75% RH, 1 mo",0.08%
same,OXYE (Oxycodone ethylenolate),"[4]; 40° C./75% RH, 1 mo",<LOQ
same,OXYN,"[4]; 40° C./75% RH, 1 mo",<LOQ
same,Other (impurities; Table 5: >0.05%),"[4]; 40° C./75% RH, 1 mo",<LOQ
same,Total impurities,"[4]; 40° C./75% RH, 1 mo",0.18%
same,1-HydroxyOXY,"[4]; 40° C./75% RH, 3 mo",<LOQ
same,Assay,"[4]; 40° C./75% RH, 3 mo",99.2%
same,"DHOXY (7,8-Dihydro-14-hydroxycodeine)","[4]; 40° C./75% RH, 3 mo",<LOQ
same,"DHOXYN (7,8-Dihydro-8,14-Dihydroxycodeinone)","[4]; 40° C./75% RH, 3 mo",0.10%
same,HOXY (14-Hydroxycodeinone),"[4]; 40° C./75% RH, 3 mo",0.08%
same,OXYE (Oxycodone ethylenolate),"[4]; 40° C./75% RH, 3 mo",<LOQ
same,OXYN,"[4]; 40° C./75% RH, 3 mo",<LOQ
same,Other (impurities; Table 5: >0.05%),"[4]; 40° C./75% RH, 3 mo",<LOQ
same,Total impurities,"[4]; 40° C./75% RH, 3 mo",0.18%
same,1-HydroxyOXY,[4]; Time 0,<LOQ
same,Assay,[4]; Time 0,100.7%
same,"DHOXY (7,8-Dihydro-14-hydroxycodeine)",[4]; Time 0,<LOQ
same,"DHOXYN (7,8-Dihydro-8,14-Dihydroxycodeinone)",[4]; Time 0,0.10%
same,HOXY (14-Hydroxycodeinone),[4]; Time 0,0.08%
same,OXYE (Oxycodone ethylenolate),[4]; Time 0,<LOQ
same,OXYN,[4]; Time 0,<LOQ
same,Other (impurities; Table 5: >0.05%),[4]; Time 0,<LOQ
same,Total impurities,[4]; Time 0,0.18%
same,Particle size (Dv90),"[5]; 25° C./60% RH, 3 months",10 μ
same,Particle size (Dv90),"[5]; 40° C./75% RH, 3 months",10 μ
same,Particle size (Dv90),[5]; Time 0,4 μ
same,DSC Onset Melt,"[6]; 25° C./60% RH, 3 mo",221.8 °C
same,DSC Onset Melt,"[6]; 40° C./75% RH, 3 mo",221.9 °C
same,DSC Onset Melt,[6]; Time 0,221.8 °C
